Test results as given in paper PMC11181322, “Copper(II) Complexes with Isomeric Morpholine-Substituted 2-Formylpyridine Thiosemicarbazone Hybrids as Potential Anticancer Drugs Inhibiting Both Ribonucleotide Reductase and Tubulin Polymerization: The Morpholine Position Matters” (Journal of Medicinal Chemistry, 2024).
Where two headings read alike, the source gives them in different places.

Experiments:
[1] = parameters: method as in PMID 32336116; conditions: copper(II) complexes of the named TSCs, measured under similar conditions ref 67; cited from earlier work
[2] = tested on: purified tubulin; assay: Inhibition of polymerization of purified tubulin; type: biochemical; conditions: read-out: inhibition of tubulin IC50 ± SD
[3] = tested on: tubulin; assay: Inhibition of [3H]colchicine binding to tubulin; conditions: for inhibition of colchicine binding % inhibition ± SD: tubulin 0.5 μM, colchicine 5 μM
[4] = tested on: MES-SA/Dx5 cells; assay: Fluorescent protein-based cytotoxicity assay, MES-SA/Dx5; type: cell-based, human; conditions: for IC50: 120 h, ± SD, n = 3; for SR, selectivity ratio IC50 (MES-SA)/IC50 (MES-SA/Dx5): in the absence of TQ
From the text: (§1) The cytotoxic activity of proligands H2L^3–H2L^6 and their copper(II) complexes 3–6 was investigated in the MES-SA (human uterine sarcoma) and in its MDR counterpart (MES-SA/Dx5) cell lines by a fluorescent protein-based assay.[73]
(§2) The human uterine sarcoma cell lines MES-SA and the doxorubicin selected MES-SA-Dx5 were obtained from ATCC (MES-SA: No. CRL-1976, MES-SA/Dx5: No. CRL-1977) and were used for the intracellular ROS generation studies. For cytotoxicity, we used the fluorescent cell lines MES-SA mCherry and MES-SA/Dx5 eGFP, which were created by lentiviral transductions of the respective genes.[73] The phenotype of the resistant cells was maintained by 500 nM doxorubicin treatment a week before use and was verified using cytotoxicity assays. Cells were cultivated at 37 °C, 5% CO2 in Dulbecco’s modified Eagle's Medium (DMEM, Sigma-Aldrich), supplemented with 10% fetal bovine serum, 5 mM glutamine, and 50 unit/mL penicillin and streptomycin (Thermo Fisher).
(§3) MES-SA mCherry and MES-SA/Dx5 eGFP cell suspensions were seeded after trypsinization at 2500 cells/20 μL density on 384-well plates, containing 20 μL of completed medium. The next day, serial dilution of the compounds was prepared and added in an additional 20 μL, with or without 0.4 μM Tariquidar. Liquid handling steps were performed by a Hamilton StarLet robot. […] The mean and standard deviation of the pIC50 values were calculated and converted to IC50 values.

[5] = tested on: MES-SA cells; assay: Fluorescent protein-based cytotoxicity assay, MES-SA; type: cell-based, human; conditions: 120 h, ± SD, n = 3
From the text: as §1, §2, §3

[6] = Proton dissociation constants (pKa) of the proligands by pH-potentiometry, UV–vis and 1H NMR titrations; type: physicochemical; conditions: 30% (v/v) DMSO/H2O solvent mixture, I = 0.1 M (KCl), t = 25 °C
Method: (§4) The path length was 1 cm.
^1H NMR spectroscopic studies were carried out on a Bruker Avance III HD instrument. All spectra were recorded with the WATERGATE water suppression pulse scheme using sodium trimethylsilylpropanesulfonate as internal standard.

[7] = target: T1, mR2 RNR protein (Mus musculus, UniProt P11157); assay: Tyrosyl radical reduction in mR2 RNR protein (EPR); type: biochemical; conditions: 20 μM mR2, 1:1 protein-to-drug
T1 construct: made in house
T1 sequence (P11157 1-390): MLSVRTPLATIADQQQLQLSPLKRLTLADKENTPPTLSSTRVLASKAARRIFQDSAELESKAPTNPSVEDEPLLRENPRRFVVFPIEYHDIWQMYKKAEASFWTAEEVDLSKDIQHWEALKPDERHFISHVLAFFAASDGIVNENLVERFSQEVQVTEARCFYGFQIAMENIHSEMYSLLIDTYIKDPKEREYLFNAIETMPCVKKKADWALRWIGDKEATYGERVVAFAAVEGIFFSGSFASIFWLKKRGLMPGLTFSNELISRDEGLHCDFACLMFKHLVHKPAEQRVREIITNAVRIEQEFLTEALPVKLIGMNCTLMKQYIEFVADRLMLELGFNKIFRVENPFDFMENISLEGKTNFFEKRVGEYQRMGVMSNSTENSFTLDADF
Method: Since α-N-heterocyclic TSCs are very potent R2 RNR inhibitors, the time-dependent Y^• reduction of the mR2 RNR protein was measured. The effect of equimolar concentrations of the proligands H2L^3–H2L^6 and their copper(II) complexes 3–6, in the absence and presence of an external reductant DTT, is shown in Figure 7.
Figure 7 Tyrosyl radical reduction kinetics of mR2 RNR (20 μM) in the absence (triangles) and in the presence (circles) of an external reductant (2 mM DTT) at the 1:1 protein-to-drug ratio, measured by EPR spectroscopy at 30 K, for (a) H2L^3 (black), H2L^4 (red), H2L^5 (blue), and H2L^6 (green) and for (b) 3 (black), 4 (red), 5 (blue), and 6 (green).
Samples containing 20 μM mR2 in 50 mM HEPES buffer, pH 7.5/100 mM NaCl, 20 μM compound in 1% (v/v) DMSO/H2O, in the absence or presence of 2 mM DTT, were incubated for indicated times and quickly frozen in cold isopentane. The same samples were used for repeated incubations at room temperature. The experiments were performed in duplicate.

[8] = calculated at pH 7.4, aqueous solution ref 69, 52; cited from earlier work
[9] = Conditional stability constants of the copper(II) complexes by EDTA displacement (UV–vis); type: physicochemical
Method: The stability constants of 3–6 were determined by EDTA competition experiments monitored by UV–vis spectrophotometry at pH 5.9, where the [Cu(HL)]^+ species is dominant. Since the displacement of the TSC ligand by EDTA is relatively slow, a 2 h reaction time was used to reach equilibrium. Upon increasing the concentration of EDTA, the absorbance of the characteristic S → Cu charge transfer band at 400–416 nm decreased (see, for example, Figure 3 for the copper(II)–H2L^4 (1:1) system).[68] The experiments were performed in both aqueous solution and the 30% (v/v) DMSO/H2O solvent mixture. The determined conditional (apparent) formation constants (log K′5.9) are rather similar (see Table 2) in both media. However, the values are lower in the DMSO/H2O solvent mixture than in aqueous solution, presumably due to coordination of DMSO to copper(II). An analogous observation was reported for the copper(II) complex of Triapine.[67] […] To compare the copper(II) binding ability of the studied TSCs H2L^3–H2L^6 at pH 5.9 (at which the conditional constants were determined), pCu (−log [Cu(II)]) values were also computed using the experimentally determined equilibrium constants (Table 2). The higher pCu value indicates a stronger metal ion binding ability of the ligand under given circumstances. The ligands form complexes with fairly similar stability, in agreement with the conditional stability constants. […] A similar behavior was reported for aqueous solutions of the N-terminally dimethylated derivative of the 2-pyridinecarboxaldehyde TSC (PTSC)[69] and for the corresponding morpholine-hybrid Morph-dm-FTSC.[52] In particular, the calculated pCu values were also very close, 13.17 for PTSC vs 13.08 for Morph-dm-FTSC calculated at pH 7.4.
as §4

[10] = Redox reaction of the copper(II) complexes with GSH (UV–vis, anoxic); type: physicochemical; conditions: pH 7.4 (50 mM HEPES); ccomplex = 25 μM; cGSH = 1.25 mM; pure water; 25 °C
From the text: The direct reduction of the copper(II) complexes with the antioxidant GSH was investigated in anoxic aqueous solution at pH 7.4 by UV–vis spectrophotometry. At this pH, the complex [Cu(HL)]^+ is assumed to predominate according to the speciation studies (vide supra). The spectral changes were monitored in the wavelength range 250–550 nm by using a large excess of GSH (50 equiv). In this wavelength range, the spectral changes are due to the absorption of the metal complex and the ligand.
These changes imply that, after reduction in the presence of excess GSH, the generated copper(I) complex is not stable and liberates the free TSC ligand. […] The time-dependent absorbance changes are shown for all the studied systems in Figure 4b. The observed rate constants (kobs) were calculated (Table 2) as a semiquantitative description of the reaction kinetics. […] The obtained kobs values fall into the range for Triapine (0.10 min^–1), 2-pyridinecarboxaldehyde TSC (0.041 min^–1), and N-monomethylated N-methyl-Triapine (0.077 min^–1), measured under similar conditions.[67] To find out whether this slightly different kinetics for 6 and 3–5 is in accordance with their reduction potentials, cyclic voltammetry was performed.
The redox reaction of the copper(II) complexes with GSH and ascorbic acid was studied at 25.0 ± 0.1 °C on a Hewlett-Packard 8452A diode array spectrophotometer using a special, tightly closed tandem cuvette (Hellma Tandem Cell, 238-QS). The reactants were separated until the reaction was triggered. Both isolated pockets of the cuvette were completely deoxygenated by bubbling a stream of Ar for 10 min before mixing the reactants. Spectra were recorded before and then immediately after the mixing, and changes were followed until no further absorbance change was observed. One of the isolated pockets contained the reducing agent, and the other contained the complex. Their final concentrations were 1250 and 25 μM, respectively. The pH of all the solutions was adjusted to 7.40 by 50 mM HEPES buffer. The ionic strength of the solution was 0.1 M (KCl). The stock solutions of the reducing agents and the complexes were freshly prepared every day. During the calculations, the absorbance (A) – time (t) curves were fitted and analyzed at the λmax of the complex. (A0 – Afinal) × e^(−a×t) + Afinal was the fitting equation used, where the A0, Afinal, and a parameters were refined and accepted at the minimal value of the weighted sum of squared residuals (difference between the measured and calculated absorbance values) at the given wavelength. Then, observed rate constants (kobs) of the redox reaction were obtained from the data points of the simulated absorbance–time curves as the slope of the ln(A/A0) vs time plots.

[11] = Cyclic voltammetry of copper(II) complexes in DMSO/n-Bu4NPF6; type: physicochemical
Method: The redox properties of the copper(II) complexes 3–6 were investigated by electrochemical, EPR, and UV–vis spectroelectrochemical measurements. […] While the half-wave reduction potentials E1/2^red for complexes 3–5 were almost the same (−0.82 V vs Fc^+/Fc), the E1/2^red for 6 is by 0.07 V more positive (−0.75 V vs Fc^+/Fc), as summarized in Table 4. The corresponding proligands are not redox active in the cathodic part (not shown).
Cyclic voltammetric experiments with 0.5 mM solutions of copper(II) complexes 3–6 in 0.1 M nBu4NPF6 (puriss quality from Fluka; dried under reduced pressure at 70 °C for 24 h before use) as supporting electrolyte in DMSO (SeccoSolv max. 0.025% H2O, Merck) were performed under Ar using a three-electrode arrangement with Pt wire as the counter electrode and Ag wire as the pseudoreference electrode. Glassy carbon or Pt wire served as the working electrode. Ferrocene purchased from Sigma-Aldrich was used as the internal potential standard without further purification. All potentials in voltammetric studies were quoted vs ferricenium/ferrocene (Fc^+/Fc) as the redox couple. A Heka PG310USB (Lambrecht, Germany) potentiostat with a PotMaster 2.73 software package served for the potential control in voltammetric studies. In situ ultraviolet–visible-near-infrared (UV–vis–NIR) spectroelectrochemical measurements were performed on a spectrometer (Avantes, Model AvaSpec-2048 × 14-USB2 in the spectroelectrochemical cell kit ([…]3) with the Pt-microstructured honeycomb working electrode, purchased from Pine Research Instrumentation. The cell was positioned in the CUV-UV Cuvette Holder (Ocean Optics) connected to the diode array UV–vis-NIR spectrometer by optical fibers. UV–vis-NIR spectra were processed using the AvaSoft 7.7 software package. Halogen and deuterium lamps were used as light sources (Avantes, Model AvaLight-DH-S-BAL).

Compound: NC(=S)N/N=C/c1ccccn1 [2-pyridinecarboxaldehyde TSC]
- kobs, reduction by GSH [1]: 0.041 min^–1

Compound: COc1ccc(/C=C\c2cc(OC)c(OC)c(OC)c2)cc1O [C-A4, Combretastatin A-4, reference compound]
- inhibition of colchicine binding % inhibition ± SD ([3]; 0.5 μM inhibitor): 85 ± 2%

Compound: COc1cccc2c1C(=O)c1c(O)c3c(c(O)c1C2=O)C[C@@](O)(C(=O)CO)C[C@@H]3O[C@H]1C[C@H](N)[C@H](O)[C@H](C)O1 [Doxorubicin, reference compound]
- IC50 ([4]; Homo sapiens, MES-SA/Dx5): 1.9 ± 0.6 µM
- SR, selectivity ratio IC50 (MES-SA)/IC50 (MES-SA/Dx5) [4]: 0.02
- IC50 ([5]; Homo sapiens, MES-SA): 40 ± 10 nM

Compound: Cc1cc(NC(=S)N/N=C/c2ncccc2CN2CCOCC2)cc(C)c1O [H2L^3]
- IC50 ([4]; Homo sapiens, MES-SA/Dx5): 13.1 ± 3.2 µM
- SR, selectivity ratio IC50 (MES-SA)/IC50 (MES-SA/Dx5) [4]: 0.22
- pKa ([6]; UV–vis spectrophotometry, read-out: pKa1): 1.53 ± 0.01
- pKa ([6]; pH–potentiometry, read-out: pKa1): < 2
- pKa ([6]; pH–potentiometry, read-out: pKa2): 5.62 ± 0.06
- pKa ([6]; pH–potentiometry, read-out: pKa3): > 10.5
- Y• reduced in mR2 protein ([7]; after 15 min, in the presence of 2 mM DTT): ~70%
- Y• reduced in mR2 protein ([7]; without DTT): ca. 20%
- IC50 ([5]; Homo sapiens, MES-SA): 2900 ± 400 nM

Compound: CN(C)C(=S)NN=Cc1ccccn1 [PTSC]
- pCu [8]: 13.17

Compound: Cc1cc(NC(=NN=Cc2ncccc2CN2CCOCC2)[S][Cu][Cl])cc(C)c1O [complex 3, [Cu(HL^3)Cl]·H2O]
- IC50 [2]: 7 ± 0.3 µM
- logK′5.9 (DMSO/H2O) ([9]; EDTA displacement, UV–vis, pH 5.9, 30% (v/v) DMSO/H2O, 25 °C): 10.33 ± 0.01
- logK′5.9 (H2O) ([9]; EDTA displacement, UV–vis, pH 5.9, water, I = 0.1 M (KCl), 25 °C): 13.82 ± 0.04
- pCu5.9 (=–log[Cu(II)]) ([9]; calcd. at pH 5.9, cL = cCu(II) = 1 μM): 8.20
- IC50 [4]: 5.5 ± 0.6 µM
- SR, selectivity ratio IC50 (MES-SA)/IC50 (MES-SA/Dx5) [4]: 2.76
- kobs, redox reaction with GSH [10]: 0.059 ± 0.004 min^–1
- IC50 [5]: 15000 ± 3000 nM
- inhibition of colchicine binding % inhibition ± SD ([3]; 5 μM inhibitor): 22 ± 2%
- inhibition of colchicine binding % inhibition ± SD ([3]; 25 μM inhibitor): 40 ± 3%
- fold less potent than CA-4 in inhibiting [3H]colchicine binding ([3]; at the 5 μM concentration): 4.5 fold
- Epa^1 ([11]; first anodic peak potential vs Fc+/Fc, 100 mV s^–1): +0.27 V
- Epa^2 ([11]; second anodic peak potential vs Fc+/Fc, 100 mV s^–1): +0.79 V
- E1/2^red ([11]; vs Fc+/Fc, scan rate 100 mV s^–1): –0.83 V
